Measurements: patent US20160264527A1 (priority 2011, published 2016)
Counter-ions that a name gives are not always drawn. Like-named read-outs stand apart in the source and are kept apart here.

What was measured:
INS832/13 cells = experiment: Insulin secretion from INS832/13 cells, 2-h static incubations; assay type: cell-based; conditions: control 1.95
Experimental: Materials. Cell culture supplies were from Corning (Corning, N.Y.) and Fisherbrand (Canada). VVWL70 was dissolved in dimethylsulfoxide (DMSO) before their use in insulin secretion experiments. Palmitate sodium salt was from Nu-Check Prep (Elysian, Minn.) and bicinchoninic acid protein assay kit from Pierce (Rockford, Ill.) was used. Stock unlabelled palm itate was prepared at 4 mM in 5% defatted BSA as described elsewhere (Roduit et al. Diabetes (2004) 53 pp 1007-1019,).
Cell culture. INS832/13 cells (Hohmeir et al. Diabetes (2000) 49 pp 424-430,) were cultured at 37° C. in a humidified atmosphere containing 5% CO2 in RPMI 1640 with sodium bicarbonate, supplemented with 10% (v/v) fetal calf serum (Wisent), 10 mM HEPES, pH 7.4, 2 mM L-glutamine, 1 mM sodium pyruvate and 50 μM β-mercaptoethanol (complete RPMI). Cells were grown to 80% confluence. Media were changed to RPMI 1640 containing 3 mM glucose supplemented as the complete RPMI 24 h prior to the experiments. Insulin secretion incubations were conducted in Krebs-Ringer bicarbonate buffer containing 10 mM HEPES, pH 7.4 (KRBH).
Insulin secretion measurement. INS832/13 cells were washed in KRBH containing 1 mM glucose and 0.5% defatted BSA (KRBH 1 G/0.5% BSA) and pre-incubated for 45 min in KRBH 1 G/0.5% BSA in presence of pharmacological agents (at indicated concentrations) or vehicle (DMSO). For examining the effect of VVWL70 (an inhibitor of ABHD6), other compounds identified in table 1, and/or orlistat (lipase inhibitor), the compounds were added first in pre-incubation media and then during incubation at 1 to 20 μM concentration (see Table-2) at 2 mM and 10 mM glucose. Insulin secretion from INS832/13 cells was measured from 2-h static incubations in KRBH containing various glucose concentrations, 0.5% defatted BSA and pharmacological agents or vehicle (DMSO), with or without 35 mM KCl or 0.3 mM palm itate, as specified (see Peyot et al., 2009—Adipose Triglyceride Lipase Is Implicated in Fuel- and Non-fuel-stimulated Insulin Secretion—J Biol Chem, 284: pp. 16848-16859). The experiments were done 3 times, with triplicates of each measurement.

CD1 strain mice = experiment: Oral glucose tolerance test (OGTT) in streptozotocin-induced mildly diabetic mice; assay type: in vivo; conditions: 5 mg/kg intraperitoneally daily for three days prior to OGTT; glucose 2 g/kg by gavage; versus vehicle; FIGS. 1 and 2
Experimental: In this experiment—CD1 strain mice were injected once with streptozotocin (100 mg/kg body wt) to induce mild diabetes. After 4 weeks, the mice were fasted overnight and oral glucose tolerance test (OGTT) was done. Half the animals (5) received ABHD6 inhibitor, VVWL70 for the three days prior to OGTT, daily, intraperitoneally (at 5 mg/kg body weight) and the other half received only vehicle. For OGTT, glucose was given by gavage (2 g/kg body wt), followed by blood collection at indicated time points (on the graph) for the analysis of blood glucose (by glucometer) and plasma insulin (by ELISA).

ABHD6 = target: T1, ABHD6 (Rattus norvegicus, UniProt Q5XI64); experiment: biochemical; conditions: read-out: ABHD6 Inhibition %
T1 construct: INS 832/13 β-cell extracts (whole cell) were prepared by sonication; endogenous in cells; host or cells: INS 832/13 β-cells, whole-cell extract
T1 sequence (Q5XI64 1-337): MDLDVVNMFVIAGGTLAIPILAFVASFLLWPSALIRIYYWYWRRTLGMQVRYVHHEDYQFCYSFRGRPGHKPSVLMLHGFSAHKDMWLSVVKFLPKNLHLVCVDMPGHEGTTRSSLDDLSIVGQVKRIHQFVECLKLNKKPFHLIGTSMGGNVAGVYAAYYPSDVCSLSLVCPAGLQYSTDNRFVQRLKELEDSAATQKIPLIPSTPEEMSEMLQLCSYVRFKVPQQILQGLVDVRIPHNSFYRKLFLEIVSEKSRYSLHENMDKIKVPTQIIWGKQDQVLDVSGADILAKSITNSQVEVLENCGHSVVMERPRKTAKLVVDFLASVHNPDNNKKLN
Experimental: (§1) Both ABHD6 and DAGL enzymes were assayed in a single incubation, with separate substrates. Cell extract, 10 μg was incubated in a final volume of 50 μl with 50 μM 1,2-dioleoylglycerol (substrate for DAGL) and 50 μM 1-palmitoylglycerol (substrate for ABHD6). […] Quantification of oleate and palm itate released gave the activities of DAGL and ABHD6, respectively. Incubations contained indicated compounds at 10 μM (or as shown) concentration. VVWL70 was used as a positive control for ABHD6 inhibition and orlistat (ORL) was used as a control for total lipase inhibition.

DAGL = experiment: Inhibition of DAGL in INS 832/13 β-cell extracts (1,2-dioleoylglycerol hydrolysis, HPLC); assay type: biochemical; conditions: compound at 10 μM; 60 min at 30° C.; 50 μM 1,2-dioleoylglycerol
Experimental: as §1

[1] = compound at 10 μM, 60 min at 30° C., 50 μM 1-palmitoylglycerol

Structure (SMILES) | Insulin secretion (% content) (INS832/13 cells; compound at 2 μM) | Insulin secretion (% content) (INS832/13 cells; compound at 5 μM) | Insulin secretion (% content) (INS832/13 cells; compound at 10 μM) | blood glucose control in OGTT (CD1 strain mice) | plasma insulin levels in OGTT (CD1 strain mice) | inhibition at 10 µM (ABHD6) [%] | DAGL Inhibition % (DAGL) [%] | inhibition at 10 µM (ABHD6; [1]) [%]
CN(Cc1cccc(-c2ccncc2)c1)C(=O)Oc1ccc(-c2ccc(C(N)=O)cc2)cc1 [Compound 1, reference compound] | 3.22 | 3.97 | 6.03 | able to control their blood glucose levels better than the mice which were given vehicle | increase in plasma insulin levels |  |  | 
CNC(=O)c1ccc(-c2ccc(OC(=O)N(C)Cc3cccc(-c4ccncc4)c3)cc2)cc1 [Compound 2, 4′-(Methylcarbamoyl)biphenyl-4-yl N-methyl-N-(3-(pyridin-4-yl)benzyl)carbamate] | 2.25 | 3.70 | 6.08 |  |  | 98 | 0 | 
CNC(=O)c1ccc(-c2ccc(OC(=O)N(Cc3cccc(-c4ccncc4)c3)C(C)C)cc2)cc1 [Compound 6, 4′-(Methylcarbamoyl)biphenyl-4-yl N-i-propyl-N-(3-(pyridin-4-yl)benzyl)carbamate] | 3.10 | 3.98 | 5.88 |  |  |  | 0 | 95
NC(=O)c1ccc(-c2ccc(OC(=O)N(Cc3cccc(-c4ccncc4)c3)c3ccccc3)cc2)cc1 [Compound 3, trifluoroacetate salt] | 2.00 | 2.10 | 3.05 |  |  |  | 0 | 90
CNC(=O)c1ccc(-c2ccc(OC(=O)N(C)Cc3cccc(-c4ccccc4)c3)cc2)cc1 [Compound 4, 4′-(Methylcarbamoyl)biphenyl-4-yl N-methyl-N-(3-phenylbenzyl)carbamate] | 3.05 | 3.65 | 3.82 |  |  | 70 | 0 | 
CN(Cc1cccc(-c2ccncc2)c1)C(=O)Oc1ccc(-c2ccc(C(=O)NC3CC3)cc2)cc1 [Compound 5, 4′-(Cyclopropylcarbamoyl)biphenyl-4-yl N-methyl-N-(3-(pyridin-4-yl)benzyl)carbamate] | 2.01 | 2.05 | 3.56 |  |  | 60 | 10 | 
